In article PMC12775124, “CUL4A-DDB1-DCAF10 is an N-recognin for N-terminally acetylated Src kinases” (Nature Communications, 2026):

How the values were obtained:
[1] = tested on: DCAF10; assay: Peptide pull-down with quantitative MS, HeLa lysate, DCAF10; format: binding, human (HeLa); conditions: for DCAF10 binding (in words): Nt-Ac vs Nt-free peptides
Experimental: Beads presenting 10-residue synthetic Nt-peptides of proteins of interest in their free (Nt-free) or modified (e.g., Nt-acetylated) versions were incubated with lysates from HeLa cells, followed by MS-based quantification of retained binders (Fig. 1a).
Biotinylated 10-mer Nt-peptides (Nt-free, Nt-acetylated, and, where indicated, Nt-myristoylated; sequences in Supplementary Table 1) were synthesized with a C-terminal Lys3 spacer and biotin, immobilized on magnetic streptavidin beads, and incubated with HeLa or mouse liver lysates. After standardized washes, bound proteins were on-bead reduced/alkylated, digested with LysC/trypsin, desalted, and analysed by LC-MS in DIA mode (Orbitrap Exploris 480) as described previously[24]. Variants included endogenous Nt-sequences, swap and mutant (Ala-Ala-Ala or Nt-amino acids) peptides, and pairwise comparisons of conditions of interest.
All MS experiments were performed as independent biological triplicates. Relative protein quantification was carried out using the label-free algorithm integrated in DIA-NN[53], and statistical testing was performed in Perseus using a two-sided Student’s t test with permutation-based multiple-testing-adjusted p-values[53],[54], as specified in the figure legends. […] Volcano blots were visualized with RStudio (version 2023.06.0). […] Cell experiments were performed as biological replicates, and binding assays as independent assays. […] Data are presented as mean ± s.d. Fold changes are reported as the ratio of the normalized value for the condition of interest to the normalized control value, with mean ± s.d. computed across biological replicates.

[2] = tested on: GST-DCAF10; assay: Streptavidin pull-down of GST-DCAF10 with biotinylated Nt-peptides; format: binding, human; conditions: 0.5 µM GST-DCAF10, 5 µM peptide, 1 h RT; WB
Experimental: To confirm direct interactions between peptides and DCAF10, we performed pull-down assays using bead-bound Nt-peptide variants incubated with purified full-length GST-DCAF10 or GST as a negative control (Fig. 2m–p and Supplementary Fig. 4a).
230 of 1:100), and desalted/concentrated on C18 reversed phase stage tips as previously
MS measurements settings are stated in MS measurements and raw file
BL21(DE3) cells (Thermo Fisher Scientific,
240 agar) plate containing 100 μg/mL ampicillin and 34 μg/mL chloramphenicol, then
Terrific broth (TB) medium (24 g/L yeast extract,
243 20 g/L tryptone, glycerol 4 mL/L, 100 mL/L phosphate buffer containing 0.17 M KH2PO4
244 and 0.72 M K2HPO4) was used to prepare a 1:100 dilution of the starter culture, and OD600
At OD600 = 1, protein induction was initiated by adding 1 mM
247 day, pellets were homogenized and lysed in glycerol lysis buffer (20 mM Tris-HCl pH
Lysis was performed on ice for 30 min, followed by
250 sonication (7 × 20 sec pulses with 20 sec breaks on ice) using a Bandelin sonoplus
Lysates were centrifuged at 4°C for 1 h
253 medium culture was lysed in 20 mL of supernatant (collected in 20 × 1 mL tubes). GST
255 agarose bead; Thermo Fisher Scientific, Waltham, MA, USA). For each 1 mL of
100 μL of GST magnetic beads
257 were washed twice with 500 μL of wash buffer (125 mM Tris-HCl pH 7.4, 150 mM NaCl,
The lysis supernatant was diluted 1:1 with
259 wash buffer, and incubated with the beads on an end-over-end rotator for 1 h at 25°C.
260 After incubation, the supernatant was removed, and the beads were washed twice with
Protein elution was then performed by incubating
263 pH 7.4, 250 mM NaCl, 0.3% Triton X-100) for 30 min at 25°C on an end-over-end rotator.
265 under the same conditions. Elution fractions were pooled and concentrated by
266 centrifugation (4°C, 25 min, 4500 rpm) using a 30 kDa cut-off concentrator (Merck
267 Millipore, #UFC803008, Darmstadt, Germany). Purified proteins were analyzed by
268 colloidal Coomassie stain, WB and MS.
270 Streptavidin pull-downs with GST-DCAF10 and biotinylated peptides
271 Streptavidin magnetic beads (DynabeadsTM MyOneTM Streptavidin T1; Thermo Fisher
272 Scientific, Waltham, MA, USA) were washed twice with 500 μL of wash buffer (125 mM
273 Tris-HCl pH 7.4, 150 mM NaCl, 0.1% Triton X-100). An excess of peptides was added
274 (to ensure full occupancy of the beads) and incubated for 30 min at RT. After peptide
275 binding, beads were again washed three times with 500 μL of wash buffer. The pull-down
276 was then performed in a 100 μL reaction volume with final concentrations of 0.5 µM
277 GST-DCAF10 and 5 µM peptide. GST-DCAF10 or GST alone (as a control) was added
278 to the peptide-streptavidin beads and incubated on a rotator for 1 h at RT. After incubation,
279 the beads were washed three times with 500 μL of wash buffer and resuspended in 4x
280 Laemmli buffer. 1/5 of the input (GST-DCAF10 and GST) and 9/10 of the sample were
281 loaded on a 10% SDS gel and blotted with anti-GST and anti-DCAF10 antibodies, while
282 1/10 was loaded on a 15% SDS gel and blotted with anti-streptavidin antibody to assess
283 equal peptide loading.
285 Streptavidin Sepharose High Performance, GE Healthcare, Chicago, IL, USA) were used.
286 After washing with a high salt wash buffer without detergents (125 mM Tris-HCl pH 7.4,
287 400 mM NaCl), an excess of peptides was added and incubated for 30 min at RT. For each
288 reaction, 10 µL of slurry beads were used. After peptide-binding, beads were again
289 washed once with a high salt wash buffer without detergents and twice with binding buffer
290 without detergents (125 mM Tris-HCl pH 7.4, 150 mM NaCl). The pull-downs were
291 performed in a 100 μL reaction volume in binding buffer without detergents with a final
292 concentration of 0.5 µM GST-DCAF10 and incubated rotating for 1 h at RT. After
293 incubation, the beads were washed five times with 500 μL of high salt wash buffer without […]

ACIKSKGKDSKK [Ac-Lyn^G2A, Ac-Ala mutant Nt-peptide of Lyn]
DCAF10 interaction, fold lower relative to Ac-Gly peptide ([1]; Ac-Ala (Ac-Lyn^G2A) vs Ac-Gly (Ac-Lyn^WT), HeLa lysate): 15 fold
DCAF10 binding of Nt-mutant peptides (in words) ([1]; n = 3 replicates): only identified in 2 of 3 replicates

GAVKSKEVIRKK [Ac-THOC7^swap, THOC7 peptide carrying Lys5-Ser6-Lys7 of Lyn]
Reversal of preference after swapping positions 5–7 ([1]; Ac-Lyn^swap vs Ac-THOC7^swap relative to WT comparison): ~ 133 fold
DCAF10 binding of swap peptide vs its WT (in words) ([1]; direct comparisons Ac-Lyn vs Ac-Lyn^swap and Ac-THOC7 vs Ac-THOC7^swap, HeLa lysate): increased binding

GAVTDDEVIRKK [Ac-THOC7, Nt-peptide of THOC7, Nt-acetylated]
DCAF10 binding (in words) ([1]; HeLa lysate): did not bind DCAF10 significantly
Binding to GST-DCAF10 (in words) [2]: neither Nt-acetylated nor Nt-free THOC7 peptides or GST alone bound DCAF10

GCIAAAGKDSKK [Ac-Lyn^AAA, Ala5-Ala6-Ala7 mutant of Lyn peptide]
log₂ difference, Ac-Lyn^WT vs Ac-Lyn^AAA, DCAF10 ([1]; HeLa lysate, n = 3): −0.41

GCIKSKENKSKK [Ac-Yes, Nt-peptide of Yes, Nt-acetylated]
DCAF10 binding (in words) ([1]; HeLa lysate): bound to DCAF10
